Measurements from patent publication US20230203098A1, “HUMAN TRANSFERRIN RECEPTOR BINDING PEPTIDE” (priority 2020, published 2023).
pKd: −log10 of the molar value. Where two headings read alike, the source gives them in different places. Each block holds one compound with its values, some of them ahead of it. Where a SMILES comes first, the peptide text is derived from it. Bridges are numbered along the chain shown (N, C = ends). [ ]: non-standard residue; d: D form. PEG12 = NCCOCCOCCOCCOCCOCCOCCOCCOCCOCCOCCOCCOCCC(=O)O; NMePhe(3-Cl) = CN[C@@H](Cc1cccc(Cl)c1)C(=O)O; NMeW = CN[C@@H](Cc1c[nH]c2ccccc12)C(=O)O; Lys(N3) = [N-]=[N+]=NCCCC[C@H](N)C(=O)O; NMeY = CN[C@@H](Cc1ccc(O)cc1)C(=O)O; NMeF = CN[C@@H](Cc1ccccc1)C(=O)O; Chg = N[C@H](C(=O)O)C1CCCCC1; PEG4 = NCCOCCOCCOCCOCCC(=O)O; Tle = CC(C)(C)[C@H](N)C(=O)O; Orn = NCCC[C@H](N)C(=O)O

Molecular target: transferrin receptor (hTfR) (Homo sapiens, UniProt P02786)
Experiment: Intermolecular interaction evaluation test between transferrin receptor (hTfR) and peptide by surface plasmon resonance (SPR)
Format: binding
Method in brief: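 Receptor was Ni-captured and EDC/NHS-fixed on an NTA chip; running buffer HEPES pH 8.0 with NaCl, Tween 20, BSA and 1.0% DMSO.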

[1] = surface plasmon resonance, peptide vs hTfR, read-out: KD value, hTfR binding by SPR (class symbol)
[2] = surface plasmon resonance, hTfR, read-out: KD value for hTfR by SPR (class symbol)
[3] = SPR, peptides, linker-added peptides and FITC conjugates, Patent ID 203-230, read-out: KD
[4] = binding to hTfR by SPR, Table 2 peptides, read-out: KD value (SPR) class

Chain of transferrin receptor (hTfR) (P02786 whole entry): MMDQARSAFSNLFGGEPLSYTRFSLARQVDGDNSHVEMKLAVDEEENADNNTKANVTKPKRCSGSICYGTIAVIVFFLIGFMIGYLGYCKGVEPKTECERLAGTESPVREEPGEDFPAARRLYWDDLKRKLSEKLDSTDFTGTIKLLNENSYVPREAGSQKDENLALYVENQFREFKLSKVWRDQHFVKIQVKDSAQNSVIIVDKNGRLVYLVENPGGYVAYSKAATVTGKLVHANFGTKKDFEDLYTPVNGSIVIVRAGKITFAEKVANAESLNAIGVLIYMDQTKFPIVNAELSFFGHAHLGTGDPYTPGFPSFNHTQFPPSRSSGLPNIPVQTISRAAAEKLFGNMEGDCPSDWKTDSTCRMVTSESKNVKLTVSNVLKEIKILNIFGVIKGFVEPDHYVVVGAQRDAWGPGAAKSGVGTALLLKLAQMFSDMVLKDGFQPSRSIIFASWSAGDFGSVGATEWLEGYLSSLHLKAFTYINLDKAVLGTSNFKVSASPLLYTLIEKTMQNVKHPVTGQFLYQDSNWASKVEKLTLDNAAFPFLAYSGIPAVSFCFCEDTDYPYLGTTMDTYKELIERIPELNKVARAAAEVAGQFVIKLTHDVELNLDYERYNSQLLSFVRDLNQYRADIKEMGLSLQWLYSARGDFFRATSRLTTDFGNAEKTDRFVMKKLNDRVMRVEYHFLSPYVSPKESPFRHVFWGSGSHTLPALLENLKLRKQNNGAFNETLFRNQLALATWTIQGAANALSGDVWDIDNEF

SMILES: CC[C@H](C)[C@@H]1NC(=O)[C@H](Cc2ccc(OCC(=O)O)cc2)NC(=O)[C@H](Cc2ccc(O)cc2)NC(=O)[C@H](CC(N)=O)NC(=O)[C@H](Cc2c[nH]c3ccccc23)N(C)C(=O)[C@H](C(C)C)NC(=O)[C@H](Cc2cccc(Cl)c2)N(C)C(=O)[C@H](C(C)C)NC(=O)[C@H](C)NC(=O)CSC[C@@H](C(N)=O)NC(=O)[C@H](Cc2ccc(O)cc2)N(C)C(=O)[C@H](Cc2ccccc2)NC(=O)[C@@H](CCCNC(=N)N)NC(=O)C(C)(C)NC(=O)[C@H]([C@@H](C)CC)NC1=O [compound 324]
pKd [1]: < 6.00

SMILES: CC[C@H](C)[C@@H]1NC(=O)[C@H](Cc2ccc(O)cc2)NC(=O)[C@H](Cc2ccc(O)cc2)NC(=O)[C@H](CC(N)=O)NC(=O)[C@H](Cc2c[nH]c3ccccc23)N(C)C(=O)[C@H](C(C)C)NC(=O)[C@H](Cc2cccc(Cl)c2)N(C)C(=O)[C@@H]2CCCC(=O)NCCCC[C@H](NC(=O)[C@H]([C@@H](C)CC)NC1=O)C(=O)N[C@@H](CCCNC(=N)N)C(=O)N[C@@H](Cc1ccc(O)cc1)C(=O)N(C)[C@@H](Cc1ccc(O)cc1)C(=O)N[C@H](C(N)=O)CSCC(=O)N[C@@H](C)C(=O)N2 [compound 409]
pKd [2]: 7.00 to 9.00

SMILES: CC[C@H](C)[C@@H]1NC(=O)[C@H](Cc2ccc(OC)cc2)NC(=O)[C@H](Cc2ccc(O)cc2)NC(=O)[C@H](CC(N)=O)NC(=O)[C@H](Cc2c[nH]c3ccccc23)N(C)C(=O)[C@H](C(C)C)NC(=O)[C@H](Cc2cccc(Cl)c2)N(C)C(=O)[C@H](C(C)C)NC(=O)[C@H](C)NC(=O)CSC[C@@H](C(=O)NCCOCCOCCOCCOCCC(N)=O)NC(=O)[C@H](Cc2ccc(O)cc2)N(C)C(=O)[C@H](Cc2ccccc2)NC(=O)[C@H](CCCNC(=N)N)NC(=O)C(C)(C)NC(=O)[C@H]([C@@H](C)CC)NC1=O [compound 351]
pKd [2]: 7.00 to 9.00

SMILES: CC[C@H](C)[C@@H]1NC(=O)[C@H](Cc2ccc(OC)cc2)NC(=O)[C@H](Cc2ccc(O)cc2)NC(=O)[C@H](CC(N)=O)NC(=O)[C@H](Cc2c[nH]c3ccccc23)N(C)C(=O)[C@H](C(C)C)NC(=O)[C@H](Cc2cccc(Cl)c2)N(C)C(=O)[C@H](C(C)C)NC(=O)[C@H](C)NC(=O)CSC[C@@H](C(N)=O)NC(=O)[C@H](Cc2ccc(O)cc2)N(C)C(=O)[C@H](Cc2ccccc2)NC(=O)[C@@H](C)NC(=O)[C@H](CCCCN)N(C)C(=O)[C@H]([C@@H](C)CC)NC1=O [compound 378]
pKd [2]: 6.00 to 7.00

SMILES: CC[C@H](C)[C@@H]1NC(=O)[C@H](C2CCCCC2)NC(=O)[C@H](Cc2ccc(O)cc2)NC(=O)[C@H](Cc2ccc(O)cc2)NC(=O)[C@H](CC(N)=O)NC(=O)[C@H](Cc2c[nH]c3ccccc23)NC(=O)[C@H](C2CCCCC2)NC(=O)[C@H](Cc2ccccc2)N(C)C(=O)[C@H](C(C)C)NC(=O)[C@H](C)NC(=O)CSC[C@@H](C(=O)NCCOCCOCCOCCOCCOCCOCCOCCOCCOCCOCCOCCOCCC(N)=O)NC(=O)[C@H](Cc2ccc(O)cc2)N(C)C(=O)[C@H](Cc2ccc(O)cc2)NC(=O)[C@H](CCCNC(=N)N)NC(=O)[C@H](CCCNC(=N)N)NC1=O [compound 266] ({CH2CO}-AV[NMeF][Chg]WNYY[Chg]IRRY[NMeY]C[PEG12]-NH2; thioether N-15)
pKd [4]: 6.00 to 7.00

SMILES: CC[C@H](C)[C@@H]1NC(=O)[C@H](Cc2ccc(OC)cc2)NC(=O)[C@H](Cc2ccc(O)cc2)NC(=O)[C@H](CC(N)=O)NC(=O)[C@H](Cc2c[nH]c3ccccc23)N(C)C(=O)[C@H](C(C)C)NC(=O)[C@H](Cc2cccc(Cl)c2)N(C)C(=O)[C@H](C(C)C)NC(=O)[C@H](C)NC(=O)CSC[C@@H](C(=O)N[C@H](CCC(=O)O)C(=O)O)NC(=O)[C@H](Cc2ccc(O)cc2)N(C)C(=O)[C@H](Cc2ccccc2)NC(=O)[C@H](CCCNC(=N)N)NC(=O)[C@H](CCCNC(=N)N)NC(=O)[C@H]([C@@H](C)CC)NC1=O [compound 387]
pKd [2]: 7.00 to 9.00

SMILES: CC[C@H](C)[C@@H]1NC(=O)[C@H](Cc2ccc(OC)cc2)NC(=O)[C@H](Cc2ccc(O)cc2)NC(=O)[C@H](CC(N)=O)NC(=O)[C@H](Cc2c[nH]c3ccccc23)N(C)C(=O)[C@H](C(C)C)NC(=O)[C@H](Cc2cccc(Cl)c2)N(C)C(=O)[C@H](C(C)C)NC(=O)[C@H](C)NC(=O)CSC[C@@H](C(=O)NCCOCCOCCOCCOCCC(N)=O)NC(=O)[C@H](Cc2ccc(O)cc2)N(C)C(=O)[C@H](Cc2ccccc2)NC(=O)[C@@H](CCCNC(=N)N)NC(=O)[C@H](CCCNC(=N)N)NC(=O)[C@H](C(C)(C)C)NC1=O [compound 327] ({CH2CO}-AV[NMePhe(3-Cl)]V[NMeW]NYY(Me)I[Tle]R[dR]F[NMeY]C[PEG4]-NH2; thioether N-15)
pKd [1]: 7.00 to 9.00

SMILES: CC[C@H](C)[C@@H]1NC(=O)[C@H](Cc2ccc(O)cc2)NC(=O)[C@H](Cc2ccc(O)cc2)NC(=O)[C@H](CC(N)=O)NC(=O)[C@H](Cc2c[nH]c3ccccc23)NC(=O)[C@H](C(C)C)NC(=O)[C@H](Cc2ccccc2)N(C)C(=O)[C@H](C(C)C)NC(=O)[C@H](C)NC(=O)CSC[C@@H](C(=O)NCCOCCOCCOCCOCCOCCOCCOCCOCCOCCOCCOCCOCCC(N)=O)NC(=O)[C@H](Cc2ccc(O)cc2)N(C)C(=O)[C@H](Cc2ccc(O)cc2)NC(=O)[C@H](CCCNC(=N)N)NC(=O)[C@H](CCCNC(=N)N)N(C)C(=O)[C@H]([C@@H](C)CC)NC1=O [compound 112]
pKd (SPR, hTfR No. 894 variants with PEG12c linker (Table 2), read-out: KD): 7.00 to 9.00

SMILES: CC[C@H](C)[C@@H]1NC(=O)[C@@H]2CCCNC(=O)CC[C@H](NC(=O)[C@H](C(C)C)NC(=O)[C@H](C)NC(=O)CSC[C@@H](C(N)=O)NC(=O)[C@H](Cc3ccc(O)cc3)N(C)C(=O)[C@H](Cc3ccc(O)cc3)NC(=O)[C@H](CCCNC(=N)N)NC(=O)[C@H](CCCNC(=N)N)NC(=O)[C@H]([C@@H](C)CC)NC1=O)C(=O)N[C@@H](C(C)C)C(=O)N(C)[C@@H](Cc1c[nH]c3ccccc13)C(=O)N[C@@H](CC(N)=O)C(=O)N[C@@H](Cc1ccc(O)cc1)C(=O)N2 [compound 415] ({CH2CO}-AVEV[NMeW]NY[Orn]IIRRY[NMeY]C-NH2; lactam 3-8 (inferred); thioether N-15 (inferred))
pKd (surface plasmon resonance, peptide vs hTfR, read-out: KD value for hTfR by SPR (class symbol)): 6.00 to 7.00

Continued, values first:

pKd [3]: 7.00 to 9.00
SMILES: CC[C@H](C)[C@@H]1NC(=O)[C@H](Cc2ccc(OC)cc2)NC(=O)[C@H](Cc2ccc(O)cc2)NC(=O)[C@H](CC(N)=O)NC(=O)[C@H](Cc2c[nH]c3ccccc23)N(C)C(=O)[C@H](C(C)C)NC(=O)[C@H](Cc2cccc(Cl)c2)N(C)C(=O)[C@H](CCC(=O)O)NC(=O)[C@H](C)NC(=O)CSC[C@@H](C(=O)NCC(=O)NCC(=O)NCC(=O)NCC(=O)N[C@@H](CO)C(=O)N[C@@H](CO)C(=O)N[C@@H](CS)C(N)=O)NC(=O)[C@H](Cc2ccc(O)cc2)N(C)C(=O)[C@H](Cc2ccccc2)NC(=O)[C@@H](CCCNC(=N)N)NC(=O)[C@H](CCCNC(=N)N)NC(=O)[C@H](CCC(=O)O)NC1=O [compound 223]

pKd [3]: 7.00 to 9.00
SMILES: CC[C@H](C)[C@@H]1NC(=O)[C@H](Cc2ccc(OC)cc2)NC(=O)[C@H](Cc2ccc(O)cc2)NC(=O)[C@H](CC(N)=O)NC(=O)[C@H](Cc2c[nH]c3ccccc23)N(C)C(=O)[C@H](C(C)C)NC(=O)[C@H](Cc2cccc(Cl)c2)N(C)C(=O)[C@H](CCC(=O)O)NC(=O)[C@H](C)NC(=O)CSC[C@@H](C(=O)NCC(=O)N[C@@H](CCCCN=[N+]=[N-])C(N)=O)NC(=O)[C@H](Cc2ccc(O)cc2)N(C)C(=O)[C@H](Cc2ccccc2)NC(=O)[C@@H](CCCNC(=N)N)NC(=O)[C@H](CCCNC(=N)N)NC(=O)[C@H](CCC(=O)O)NC1=O [compound 224] ({CH2CO}-AE[NMePhe(3-Cl)]V[NMeW]NYY(Me)IER[dR]F[NMeY]CG[Lys(N3)]-NH2; thioether N-15)

pKd [2]: 7.00 to 9.00
SMILES: CC[C@H](C)[C@@H]1NC(=O)[C@H](Cc2ccc(OC)cc2)NC(=O)[C@H](Cc2ccc(O)cc2)NC(=O)[C@H](CC(N)=O)NC(=O)[C@H](Cc2c[nH]c3ccccc23)N(C)C(=O)[C@H](C(C)C)NC(=O)[C@H](Cc2cccc(Cl)c2)N(C)C(=O)[C@H](C(C)C)NC(=O)[C@H](C)NC(=O)CSC[C@@H](C(=O)NCC(=O)NCC(=O)NCC(=O)NCC(=O)N[C@@H](CO)C(=O)N[C@@H](CO)C(=O)N[C@@H](CS)C(N)=O)NC(=O)[C@H](Cc2ccc(O)cc2)N(C)C(=O)[C@H](Cc2ccccc2)NC(=O)[C@@H](CCCNC(=N)N)NC(=O)[C@H](CCCCN)NC(=O)[C@H]([C@@H](C)CC)NC1=O [compound 376]

pKd (hTfR binding by SPR, hTfR No. 894 variant peptides, linker-added peptides and payload conjugates (Table 2), read-out: KD value obtained from the SPR measurement): 7.00 to 9.00
SMILES: CC[C@H](C)[C@@H]1NC(=O)[C@H](Cc2ccc(O)cc2)NC(=O)[C@H](Cc2ccc(O)cc2)NC(=O)[C@H](CC(N)=O)NC(=O)[C@H](Cc2c[nH]c3ccccc23)NC(=O)[C@H](C(C)C)NC(=O)[C@H](Cc2ccccc2)N(C)C(=O)[C@H](C(C)C)NC(=O)[C@H](C)NC(=O)CSC[C@@H](C(=O)NCC(=O)NCC(=O)N[C@@H](CCC(=O)O)C(=O)N[C@@H](CO)C(=O)N[C@@H](CCC(=O)O)C(=O)N[C@@H](CO)C(=O)N[C@@H](CCCCNC(=O)C2CCC(CN3C(=O)C=CC3=O)CC2)C(N)=O)NC(=O)[C@H](Cc2ccc(O)cc2)N(C)C(=O)[C@H](Cc2ccc(O)cc2)NC(=O)[C@H](CCCNC(=N)N)NC(=O)[C@H](CCCNC(=N)N)NC(=O)[C@H]([C@@H](C)CC)NC1=O (some centres unmarked) [compound 192]

pKd [4]: 6.00 to 7.00
SMILES: CC[C@H](C)[C@@H]1NC(=O)[C@H](Cc2ccc(O)cc2)NC(=O)[C@H](Cc2ccc(O)cc2)NC(=O)[C@H](Cc2c[nH]cn2)NC(=O)[C@H](Cc2c[nH]c3ccccc23)NC(=O)[C@H](C(C)C)NC(=O)[C@H](Cc2ccccc2)N(C)C(=O)[C@H](C(C)C)NC(=O)[C@H](C)NC(=O)CSC[C@@H](C(N)=O)NC(=O)[C@H](Cc2ccc(O)cc2)N(C)C(=O)[C@H](Cc2ccc(O)cc2)NC(=O)[C@H](CCCNC(=N)N)NC(=O)[C@H](CCCNC(=N)N)NC(=O)[C@H]([C@@H](C)CC)NC1=O [compound 274]
